The values that follow come from ChEMBL document CHEMBL5321253, “Discovery of novel pyridinones as MGAT2 inhibitors for the treatment of metabolic disorders” (Bioorg Med Chem Lett, 2023).

Data set [1] can be described thus: in vitro. Conditions: mouse, liver microsomes. Background: Microsomes from liver hold many membrane-bound enzymes, among them those of drug oxidation.
A short description of data set [2]: in vitro. Conditions: human, liver microsomes.

The fraction remaining is the share of the starting amount still present when the sample was taken. A high value points to greater stability.

With `Cc1ccc(-c2cc(-c3ccc(OCCCC(F)(F)F)cc3)[nH]c(=O)c2NC(=O)c2ccno2)cc1`, the amount remaining at 10 min in the data set “in vitro [1]” worked out at 27%; in the data set “in vitro [2]” it was 64%.
